Source: US6806269B1, “2-Amino-benzoxazinones for the treatment of herpes simplex virus” (G. D. Searle & Cop, priority 1999, dated 2004)

Tests used:
HSV-1 = assay: Antiviral assay: plaque reduction assay, HSV-1 in vero cells; type: cell-based, HSV-1 (vero cells, African green monkey kidney cell); settings: Human alphaherpesvirus 1, Vero, 72 h, read-out: ANTIVIRUS EC50
Source text: These complimentary assays tested the ability of a compound to inhibit the production of new virus and the toxicity of the compound to the host cells. It was important that both assays be performed simultaneously in order to compare the results directly since toxicity may indirectly reduce viral replication.
The antiviral assay was estimated by plaque reduction assay performed by following methods. 1×10^5 of vero cells (African green monkey kidney cell) in 48-well plates were over-night cultured and the medium of this culture was replaced with 200 μl of 2% FBS DMEM containing 2× the desired final cordon of test compounds or no compound as control. The cultures were added 50 μl of 2% FBS DMEM containing with about 50 plaque forming units of HSV-1and next 250 μl of 2% FBS DMEM containing 1% methylcellulose. These infected cultures were incubated at 37° C., 5% CO2 for 3 days until plaques was visible. The cells were fixed and stained simultaneously with 0.025% crystalviolet in 5% formalin solution and plaque were counted. The concentration of test compound which conferred 50% inhibition of plaque formation compared to no compound control was interpolated from the observed data and defined as IC50.

[1] = biological target: T1, Bovine pancreas α-chymotripsin (Bos taurus, UniProt P00766); assay: Chymotripsin assay; type: biochemical; settings: 50 μM compound; 30 minutes pre-incubation; read-out: INHIBITION AT 50 μM CHYMOTRYPSIN (%)
T1 construct: purchased Sigma type II; host or cells: bovine pancreas
Description: The chymotripsin assay was modified from the method of Delmar, et al. (Anal. Biochem. 99, 316-320 (1979)). Bovine pancreas α-chymotripsin(type II, Sigma) was dissolved in 0.001 N HCl at 1 mg/ml and further diluted 1/1000 in assay buffer (0.1 M Tris, pH 7.8 containing 0.1 M CaCl2) before use. 0.75 μl of test compound in DMF (or DMF alone), 50 μl of assay buffer and 50 μl of enzyme were added to 96 wells plates, mixed and pre-incubated for 30 minutes at ambient temperature. Reaction was initiated by addition of 50 μl of 0.2 mM N-succinyl-Ala-Ala-Pro-Phe-p-nitroanilide (Sigma; 2 mM in DMSO diluted 1/10 in assay buffer before use). The increase in absorbance at 405 nm was monitored for 3 minutes with BIO-RAD model 3550 microplate-reader.

[2] = biological target: T2, Human leukocyte elastase (HLE) (Homo sapiens, UniProt P08246); assay: Human leukocyte elastase assay; type: biochemical; settings: 50 μM compound; 30 minutes pre-incubation
T2 construct: purchased CALBIOCHEM
T2 sequence (P08246 30-267): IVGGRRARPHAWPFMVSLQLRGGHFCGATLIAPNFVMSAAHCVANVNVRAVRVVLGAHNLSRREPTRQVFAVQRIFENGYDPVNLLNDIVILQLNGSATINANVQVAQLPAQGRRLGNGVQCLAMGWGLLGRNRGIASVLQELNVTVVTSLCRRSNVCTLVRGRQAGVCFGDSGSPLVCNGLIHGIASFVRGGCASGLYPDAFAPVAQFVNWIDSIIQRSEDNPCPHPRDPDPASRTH
Description: Human Leukocyte Elastase Assay
Human leukocyte elastase (HLE) (CALBIOCHEM) was dissolved in saline at 1 mg/ml and further diluted 1/10 in assay buffer (0.2 M Tris, pH 8.0) before use.
0.75 μl of test compound in DMF (or DMF alone), 50 μl of assay buffer and 50 μl of enzyme were added to 96 well plate, mixed and pre-incubated for 30 minutes at ambient temperature. Reaction was initiated by addition of 50 μl of 2.5 mM methoxysuccinyl-Ala-Ala-Pro-Val-p-nitroanilide (Sigma; 25 mM in DMSO diluted 1/10 in assay buffer before use). The increase in absorbance at 405 nm was monitored for 3 min. with BIO-RAD model 3550 microplate reader.

[3] = biological target: T3, HSV-1 protease (assemblin) (Human herpesvirus 1, UniProt P10210); assay: Enzymatic assay for HSV-1 protease (assemblin) inhibition (FP assay / HPLC assay); type: biochemical; settings: recombinant HSV-1 protease; 30 minute pre-incubation at room temperature; FP or HPLC format not stated; read-out: ENZYME IC50
T3 construct: encoding residues 1-288 of HSV-1 UL26 open reading frame and 32 heterologous amino acid; 6xHis (N); made in house
Description: Enzymatic Assay for HSV-1 Protease (Assemblin) Inhibition
Assemblin protease activity was determined using fluorescence polarization (FP). The fluorescent substrate was biotin-gamma-aminobutyrate -[…]-DTAF, based on the HSV-1release cleavage site. […] A change in molecular size of fluorescent substrate molecule, which was increased using avidin as a reaction stop reagent, allowed cleavage to be measured by FP. Potential protease inhibitors were dissolved in DMF and then diluted 5-fold in assay buffer. […] The enzyme was diluted to 21.3 ug/mL in assay buffer (1M NaCitrate, 50 mM NaPhosphate, pH 7.4, 100mM NaCl, 20% glycerol, 2 mM TECP) and 48.5 uL were added to each well. Following a 30 minute incubation at room temperature, 10 uL of 62.5 ug/mL substrate were added. After about 90 minute incubation at room temperature, 50 uL of 2 mg/mL avidin in phosphate buffer (50 mM Naphosphate, 100 mM NaCl, pH 7.4) were added to each well. The plates were read by a fluorescence polarization plate reader. Inhibitor potency was determined by comparison with incubations lacking inhibitor.
Assays were performed with the peptide substrate H-His-Thr-Tyr-Leu-Gln-Ala-Ser-Glu-Lys-Phe-Lys-Met-Trp-Gly-NH2 (Bachem). This substrate is a HSV-1-amide UL26 Open Reading Frame (242-255) and is derived from the release site of HSV-1 protease. HSV-1protease cleaves between alanine and serine. The product […] was quantified on HPLC using fluorescence detection of tryptophan residue. Enzyme was diluted to 4.3 ug/mL in assay buffer (1 M NaCitrate, 50 mM NaPhosphate, pH 7.3, 100 mM NaCl, 20% glycerol, 2 mM TCEP) and 48.5 uL were added to the tubes. Potential protease inhibitors were dissolved in DMF and then diluted 10-fold in assay buffer. 6.5 uL of inhibitor solution were added to each tube. Following a 30-minute incubation at room temperature, 10 uL of substrate in phosphate buffer (50 mM Naphosphate, 100 mM NaCl, pH 7.4) were added to all tubes. The final concentration of the substrate in the reaction mixtures was 10 uM. After a 15-minute incubation at room temperature, assays were quenched using 50 uL of 50% TCA. Inhibitor potency was determined by comparison with incubations lacking inhibitor, which under these conditions gave about 20% cleavage of substrate.
Recombinant HSV-1 Protease
HSV-1 protease was purified from baculovirus expressing a DNA construction encoding residues 1-288 of HSV-1 UL26 open reading frame and 32 heterologous amino acid. The construction also encoded six additional histidine residues at the amino terminus of the protease. These additional histidine residues provided an affinity ligand by which the protein was purified using Ni-NTA agarose gel (Qiagen). The purified protease was stored in stock solution (20 mM HEPES buffer, pH 8.5, containing 20% (v/v) glycerol). This stock was diluted with assay buffer to adequate concentration of enzymatic assay.
A specific substrate was synthesized based on the cleavage specificity of HSV-1 protease at the “release site” of the assembly protein (DiIanni, C. L., et al., J. Biol. Chem. 268, 2048, (1993)). The assembly protein release site has the sequence, HTYLQA*SEKFKMWG. The substrate used was biotin-gamma -aminobutyrate-HTYLQA*SERFRIK-DTAF which was prepared by standard peptide synthetic methods such as that described in Bodansky and Bodansky, “The Practice of Peptide Synthesis” (1984), and was stored as a stock solution at 2.5 mg/mL in DMF. This was diluted to 62.5 ug/mL with phosphate buffer (50 mM Naphosphate, […], pH 7.4) just before use.
The substrate was HSV-1-amide UL 26 Open Reading Frame (242-255), obtained from Bachem (Product No. M-2160).
An assay buffer (1 M NaCitrate, 50 mM NaPhosphate, pH 7.4, 100 mM NaCl, 20% glycerol, 2 mM TCEP) was used to dilute stock solutions of enzyme and inhibitors.

T3 sequence (P10210 1-288): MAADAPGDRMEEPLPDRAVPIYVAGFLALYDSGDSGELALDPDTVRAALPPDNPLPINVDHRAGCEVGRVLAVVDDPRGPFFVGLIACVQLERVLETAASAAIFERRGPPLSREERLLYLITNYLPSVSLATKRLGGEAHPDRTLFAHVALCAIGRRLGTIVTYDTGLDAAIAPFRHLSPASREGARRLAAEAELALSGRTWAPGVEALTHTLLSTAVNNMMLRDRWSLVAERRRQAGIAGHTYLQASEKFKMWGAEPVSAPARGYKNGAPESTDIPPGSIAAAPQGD

SMILES	EC50 (HSV-1)	inhibition at 50 µM [1]	inhibition at 50 µM [2]	IC50 [3]
CC(=O)N1CCN(c2nc3ccc(NC(=O)OC(C)(C)C)c(C)c3c(=O)o2)CC1 [Compound 16, 6-[[(1,1-Dimethylethoxy)carbonyl]amino]-5-methyl-2-[4-(1-acetylpiperadinyl)]-4H-3,1-benzoxazin-4-one]	3.6 µM	0%	1.4%	2.3 µM
Cc1c(NC(=O)OC(C)(C)C)ccc2nc(N3CCCC4CCCCC43)oc(=O)c12 (stereo not shown) [Compound 11, 6-[[(1,1-Dimethylethoxy)carbonyl]amino]-5-methyl-2-(decahydroquinolyl)-4H-3,1benzoxazin-4-one]	2.8 µM	0%	0%	5.5 µM
Cc1c(NC(=O)OC(C)(C)C)ccc2nc(N(CCC#N)C3CC3)oc(=O)c12 [Compound 13, 6-[[(1,1-Dimethylethoxy)carbonyl]amino]-5-methyl-2-[(2-cyanoethyl)-(cyclopropyl)amino]-4H-3,1-benzoxazin-4-one]	7.6 µM	2.2%	0%	3.9 µM
Cc1c(NC(=O)OC(C)(C)C)ccc2nc(N(C)Cc3ccccn3)oc(=O)c12 [Compound 18, 6-[[(1-Dimethylethoxy)carbonyl]amino]-5-methyl-2-[methyl(2-pyridylmethyl)-amino]-4H-3,1-benzoxazin-4-one]	15.1 µM	0%	28.7%	1.5 µM
Cc1cccc2nc(N(C)Cc3ccccn3)oc(=O)c12 [CC3, reference compound]	48.9 µM	100%	100%	3.2 µM
Cc1c(NC(=O)OC(C)(C)C)ccc2nc(N(C)CCc3c[nH]c4ccccc34)oc(=O)c12 [Compound 5, 6-[[(1-Dimethylethoxy)carbonyl]amino]-5-methyl-2-[methyl[2-(3-indolyl)ethyl]amino]-4H-3,1-benzoxazin-4-one]	3.2 µM	13.1%	0%	3.5 µM
Cc1c(NC(=O)OC(C)(C)C)ccc2nc(N3CCN(C(=O)c4ccco4)CC3)oc(=O)c12 [Compound 14]	1.6 µM	0%	46.3%	2 µM
Cc1c(NC(=O)OC(C)(C)C)ccc2nc(N3CCN(C(=O)c4cccs4)CC3)oc(=O)c12 [Compound 17, 6-[[(1,1-Dimethylethoxy)carbonyl]amino]-5-methyl-2-[(4-thenoyl)piperzinyl]-4H-3,1-benzoxazin-4-one]	4.1 µM	0%	0%	4.2 µM
COc1ccc(CN(C)c2nc3ccc(NC(=O)OC(C)(C)C)c(C)c3c(=O)o2)cc1 [Compound 3, 6-[[(1,1-Dimethylethoxy)carbonyl]amino]-5-methyl-2-[methyl[(4-methoxyphenyl)methyl]amino]4H-3,1-benzoxazin-4-one]	0.16 µM	0%	0%	0.6 µM
Cc1c(NC(=O)OC(C)(C)C)ccc2nc(N3CC=CCC3)oc(=O)c12 [Compound 8, 6-[[(1,1-Dimethylethoxy)carbonyl]amino]-5-methyl-2-[1-(1,2,3,6-tetrahydro-pyridyl)]-4H-3,1-benzoxazin-4-one]	3.3 µM	0%	0%	5 µM
